Tested on: Muse cells (SSEA-3-positive cells)
Assay: Cell mobility analysis (EZ-TAXIScan), chemotactic ability of Muse cells
Assay type: cell-based
Conditions: SSEA-3-positive cells from human bone marrow mesenchymal stem cells; 2 μM S1P as positive control; photographed every 10 minutes
Description: Mesenchymal stem cells derived from human bone marrow in a concentration of 1×10^7 cells/mL were prepared using an FACS buffer containing Dulbecco PBS, 0.5% bovine serum albumin, and 2 mM EDTA (ethylenediaminetetraacetic acid). Thereto, an anti-SSEA-3 antibody (diluted 400 times) was added as a primary antibody. Reaction was allowed to proceed on ice for 1 hour while being suspended at appropriate times, followed by centrifugation for supernatant removal. Then, the addition and removal of an FACS buffer were repeated three times for rinsing. Thereto, an FITC-labeled anti-rat-IgM antibody (diluted 100 times) was added as a secondary antibody. Subsequently, in the same manner as above, reaction was allowed to proceed on ice for 1 hour and then addition and removal of an FACS buffer were repeated three times for rinsing. SSEA-3-positive cells were separated by FACS the day before measurement, followed by overnight culturing under conditions of 37° C. and 5% CO2. […] The resulting cell suspension was injected into each well of an EZ-[…] (registered trademark; the same applies hereinafter) holder chamber (GE Healthcare), and the cells were aligned properly in front of a terrace by a water-level difference method. […] The EZ-[…] holder chamber was placed in an incubator under conditions of 37° C. and 5% CO2. […]

CCCCCCCCCCCCC/C=C/[C@@H](O)[C@@H](N)COP(=O)(O)O [S1P, sphingosine-1-phosphate] was tested, and the “movement of Muse cells (chemotactic ability with time)” value was “same movement of Muse cells was observed”.
